{
  "source": "patent US6379930B1",
  "about": "“Stabilization of nucleic acid amplification cocktails” (Applied Gene Technologies, Inc., priority 1999, dated 2002)",
  "key": {"[1]": {"tested_on": "PCR of whole genomic mycobacterial DNA (Taq polymerase, primers Tb11 and Tb12)", "assay": "Reversible inhibition of PCR amplification by DNA binding ligand, product analyzed by gel electrophoresis", "format": "biochemical", "procedure": "AMT is purchased from Sigma Chem. Co., St. Louis, Mo. A stock solution of 5 mg/mL AMT is prepared in de-ionized water. An amplification cocktail is prepared containing 200 picomoles of primers Tb11 and Tb12 (Devallois et al., J. Clin. Microbiol., 35:2669-73 (1997)), 1.25 units of Taq polymerase/100 μL, 200 μM dNTPs and 0.05 mg/mL AMT in a Tris-EDTA buffer, pH 7. A corresponding solution without AMT is prepared as a control.\nAmplification is performed in Eppendorf tubes to which are added 0.5 μg of whole genomic mycobacterial DNA in 50 μl of buffer and either 1 μl or 10 μl of the amplification cocktail. Final volume is adjusted to 100 μl with the aqueous buffer solution (without AMT) so that the final concentrations of all PCR components, except AMT, is the same in all replicates. Controls received an amplification cocktail without AMT.\nPCR amplification is performed for 45 cycles (92° C.-56° C.-72° C.; denaturation, annealing, extension) and the product analyzed by gel electrophoresis. […]"}, "nucleic acids": {"tested_on": "nucleic acids", "conditions": "Haq et al. 1997; cited from earlier work"}, "ligase chain reaction": {"tested_on": "ligase chain reaction", "conditions": "Notomi et al. 1998; cited from earlier work"}, "[2]": {"tested_on": "transcription mediated amplification reaction", "conditions": "Della-Latta et al. 1999; cited from earlier work"}},
  "data": [
    {"smiles": "Cc1oc2c(C)c3oc(=O)cc(C)c3cc2c1CN", "note": "[AMT, 4′-aminomethyltrioxsalen]", "values": [
      {"measurement": "amplification product in PCR", "setting": "[1]; 0.5 μg/mL AMT, 45 cycles", "value": "detectable amplification product is produced"},
      {"measurement": "inhibition of the PCR", "setting": "[1]; 5 μg/mL AMT, 45 cycles", "value": "complete inhibition"},
      {"measurement": "amount of amplification product", "setting": "[1]; lower concentrations of AMT: 5 ng/mL and 0.5 ng/mL", "value": "continues to increase"}
    ]},
    {"smiles": "CN1CCN(c2ccc3[nH]c(-c4ccc5[nH]c(-c6ccc(O)cc6)nc5c4)nc3c2)CC1", "note": "[Hoechst 33258]", "values": [
      {"measurement": "affinity for nucleic acid", "setting": "nucleic acids", "value": "≤ 3.2e+08", "unit": "M⁻¹"}
    ]},
    {"smiles": "O=P(O)(O)O", "note": "[phosphate ion]", "values": [
      {"measurement": "concentration inhibitory for a ligase chain reaction", "setting": "ligase chain reaction", "value": "above 1.2 mM"},
      {"measurement": "inhibitory concentration for a transcription mediated reaction", "setting": "[2]", "value": "about 0.7 mM"}
    ]}
  ]
}
